Laboratory results published in patent US9085576B2 (AMGEN INC., priority 2013, dated 2015).
Where a name gives a salt, the structure may show the parent alone. Read-outs that look alike come from different tables or passages of the source.

Key:
[1] = molecular target: Beta Secretase enzyme (BACE) (Homo sapiens (Human), UniProt P56817); test: In vitro enzymatic BACE FRET assay; format: biochemical; details: read-out: BACE1 Enzyme assay IC50
Cathepsin D (Cat D) = Cathepsin D (Cat D) (Homo sapiens (Human), UniProt P07339); test: In vitro enzymatic Cathepsin D (Cat D) FRET assay; format: biochemical
Cathepsin D (Cat D), sequence (P07339 65-412, species assumed): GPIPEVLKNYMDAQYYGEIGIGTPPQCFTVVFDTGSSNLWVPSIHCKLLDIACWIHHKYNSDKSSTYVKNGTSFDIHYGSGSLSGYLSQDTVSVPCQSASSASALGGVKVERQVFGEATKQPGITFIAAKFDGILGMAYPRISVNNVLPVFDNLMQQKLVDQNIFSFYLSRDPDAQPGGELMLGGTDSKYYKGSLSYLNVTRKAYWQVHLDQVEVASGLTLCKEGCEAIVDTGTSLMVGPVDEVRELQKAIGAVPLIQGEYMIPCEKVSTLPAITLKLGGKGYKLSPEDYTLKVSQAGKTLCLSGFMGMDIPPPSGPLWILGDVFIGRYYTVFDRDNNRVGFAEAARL

Abeta 40 = test: In vivo inhibition of beta-secretase: Abeta 40 reduction in CSF and brain of the rat; details: after 4 hrs; for % reduction of rat CSF levels at 10 pmk / % reduction of rat brain levels at 10 mpk: 10 mpk
Source text: In Vivo Inhibition of Beta-Secretase
Several animal models, including mouse, rat, dog, and monkey, may be used to screen for inhibition of beta-secretase activity in vivo following administration of a test compound sample. […] A separate group of animals receive 2% hydroxypropyl methylcellulose, 1% Tween80 alone, containing no test compound, and serve as a vehicle-control group. At the end of the test period, animals are sacrificed and brain tissues, plasma or cerebrospinal fluid are collected. […] Homogenates are centrifuged at 355,000 g, 4° C. for 30 minutes. CSF or brain supernatants are then analyzed for the presence of A-beta peptide by specific sandwich ELISA assays based on ECL (Electrochemiluminescence) technology. For example, rat Abeta40 is measured using biotinylated-4G8 (Signet) as a capture antibody and Fab40 (an in-house antibody specific to the C-terminal of Abeta40) as a detection antibody.
Actual vehicles used: Oral: 2% HPMC, 1% Tween80, pH 2.2

BACE = BACE (Homo sapiens (Human), UniProt P56817); test: In vitro BACE cell-based assay (Aβ40 in conditioned medium, sandwich ELISA)
BACE, sequence (P56817 46-501, species assumed): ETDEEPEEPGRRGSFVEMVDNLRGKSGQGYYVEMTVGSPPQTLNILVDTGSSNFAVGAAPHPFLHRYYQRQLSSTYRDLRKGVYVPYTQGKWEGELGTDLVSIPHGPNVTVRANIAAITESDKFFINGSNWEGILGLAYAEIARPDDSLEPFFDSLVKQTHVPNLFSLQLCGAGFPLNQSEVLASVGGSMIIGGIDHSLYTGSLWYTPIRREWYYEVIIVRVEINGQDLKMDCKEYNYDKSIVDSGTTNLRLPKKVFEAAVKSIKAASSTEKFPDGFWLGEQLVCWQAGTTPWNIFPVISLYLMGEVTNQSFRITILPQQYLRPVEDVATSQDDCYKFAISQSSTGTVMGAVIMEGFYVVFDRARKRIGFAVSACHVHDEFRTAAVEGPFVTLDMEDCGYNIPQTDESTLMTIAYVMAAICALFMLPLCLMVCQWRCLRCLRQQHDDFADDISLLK

Beta Secretase enzyme (BACE), sequence (P56817 46-501): as the sequence (P56817 46-501, species assumed) above

Structure (SMILES)	IC50 [1]	IC50 (Cathepsin D (Cat D); read-out: CatD IC50)	% reduction of rat CSF levels at 10 pmk (Abeta 40; Abeta 40 in rat CSF)	% reduction of rat brain levels at 10 mpk (Abeta 40; Abeta 40 in rat brain)	IC50 (BACE)	IC50 (Cathepsin D (Cat D); Cat D FRET assay, first procedure, read-out: Cat D IC50)	% reduction of rat CSF levels (3 mpk) (Abeta 40; Abeta 40 in rat CSF, 3 mpk)	% reduction of rat brain levels (3 mpk) (Abeta 40; Abeta 40 in rat brain, 3 mpk)
NC1=N[C@@](c2cc(NC(=O)c3ccc(Cl)cn3)ccc2F)(C(F)F)[C@H]2C[C@H]2O1 [Example 76, N-(3-((1R,5S,6R)-3-amino-5-(difluoromethyl)-2-oxa-4-azabicyclo[4.1.0]hept-3-en-5-yl)-4-fluorophenyl)-5-chloropicolinamide]	0.0266 µM	684 µM	64%	60%	0.0302 µM			
CC#CCOc1cnc(C(=O)Nc2ccc(F)c([C@@]3(CF)N=C(N)O[C@@H]4C[C@@H]43)c2)cn1 [Example 199, N-(3-((1R,5S,6R)-3-amino-5-(fluoromethyl)-2-oxa-4-azabicyclo[4.1.0]hept-3-en-5-yl)-4-fluorophenyl)-5-(but-2-yn-1-yloxy)pyrazine-2-carboxamide]	0.0022 µM	959 µM	62%	42%	0.0005 µM			
NC1=N[C@@](c2cc(NC(=O)c3ccc(Br)cn3)ccc2F)(C(F)F)[C@H]2C[C@H]2O1 [Example 74, N-(3-((1R,5S,6R)-3-amino-5-(difluoromethyl)-2-oxa-4-azabicyclo[4.1.0]hept-3-en-5-yl)-4-fluorophenyl)-5-bromopicolinamide]	0.0247 µM	282 µM	56%	46%	0.0181 µM			
COc1ccc(C(=O)Nc2cc(C)c(F)c([C@@]3(C(F)F)N=C(N)O[C@@H]4C[C@@H]43)c2)nc1 [Example 304, N-(3-((1R,5S,6R)-3-amino-5-(difluoromethyl)-2-oxa-4-azabicyclo[4.1.0]hept-3-en-5-yl)-4-fluoro-5-methylphenyl)-5-methoxypicolinamide]	0.0522 µM	355 µM	41%	20%	0.0359 µM			
COc1cc(C#N)cnc1C(=O)Nc1ccc(F)c([C@@]2(C(F)F)N=C(N)O[C@@H]3C[C@@H]32)c1 [Example 45, N-(3-((1R,5S,6R)-3-amino-5-(difluoromethyl)-2-oxa-4-azabicyclo[4.1.0]hept-3-en-5-yl)-4-fluorophenyl)-5-cyano-3-methoxypicolinamide]	0.0555 µM	3450 µM	31%	6%	0.0372 µM			
Cc1cc(OC(F)F)cnc1C(=O)Nc1ccc(F)c([C@@]2(C(F)F)N=C(N)O[C@@H]3C[C@@H]32)c1 [Example 237, N-(3-((1R,5S,6R)-3-amino-5-(difluoromethyl)-2-oxa-4-azabicyclo[4.1.0]hept-3-en-5-yl)-4-fluorophenyl)-5-(difluoromethoxy)-3-methylpicolinamide]	0.0377 µM	327 µM	72%	67%	0.0323 µM			
NC1=N[C@@](c2cc(NC(=O)c3ccc(Cl)cn3)ccc2Cl)(C(F)F)[C@H]2C[C@H]2O1 [Example 99, N-(3-((1R,5S,6R)-3-amino-5-(difluoromethyl)-2-oxa-4-azabicyclo[4.1.0]hept-3-en-5-yl)-4-chlorophenyl)-5-chloropicolinamide]	0.0227 µM	1050 µM	63%	58%	0.0195 µM			
NC1=N[C@](CF)(c2cc(NC(=O)c3ccc(Cl)cn3)ccc2F)[C@H]2C[C@H]2O1 [Example 117, N-(3-((1R,5S,6R)-3-amino-5-(fluoromethyl)-2-oxa-4-azabicyclo[4.1.0]hept-3-en-5-yl)-4-fluorophenyl)-5-chloropicolinamide]	0.0211 µM	472 µM	78%	71%	0.0053 µM			
NC1=N[C@@](c2cc(NC(=O)c3ncc(Cl)cc3CO)ccc2F)(C(F)F)[C@H]2C[C@H]2O1 [Example 419, N-(3-((1R,5S,6R)-3-amino-5-(difluoromethyl)-2-oxa-4-azabicyclo-[4.1.0]hept-3-en-5-yl)-4-fluorophenyl)-5-chloro-3-(hydroxymethyl)picolinamide]	0.0332 µM	276 µM	57%	42%	0.0293 µM			
Cc1cc(Cl)cnc1C(=O)Nc1ccc(F)c([C@@]2(C(F)F)N=C(N)O[C@@H]3C[C@@H]32)c1 [Example 43, N-(3-((1R,5S,6R)-3-amino-5-(difluoromethyl)-2-oxa-4-azabicyclo[4.1.0]hept-3-en-5-yl)-4-fluorophenyl)-5-chloro-3-methylpicolinamide]	0.0225 µM	596 µM	70%	59%	0.0314 µM	> 400 µM		
Cc1cc(C#N)cnc1C(=O)Nc1ccc(F)c([C@@]2(C(F)F)N=C(N)O[C@@H]3C[C@@H]32)c1 [Example 44, N-(3-((1R,5S,6R)-3-amino-5-(difluoromethyl)-2-oxa-4-azabicyclo[4.1.0]hept-3-en-5-yl)-4-fluorophenyl)-5-cyano-3-methylpicolinamide]	0.0142 µM	376 µM	80%	73%	0.017 µM		69 (3 mpk) %	52 (3 mpk) %
COc1cnc(C(=O)Nc2ccc(F)c([C@@]3(CF)N=C(N)O[C@@H]4C[C@@H]43)c2)c(Cl)c1 [Example 229, N-(3-((1R,5S,6R)-3-amino-5-(fluoromethyl)-2-oxa-4-azabicyclo[4.1.0]hept-3-en-5-yl)-4-fluorophenyl)-3-chloro-5-methoxypicolinamide]	0.0341 µM	956 µM	41%	8%	0.0064 µM			
C#CCOc1cnc(C(=O)Nc2ccc(F)c([C@@]3(C(F)F)N=C(N)O[C@@H]4C[C@@H]43)c2)cn1 [Example 95, N-(3-(((1R,5S,6R)-3-amino-5-(difluoromethyl)-2-oxa-4-azabicyclo[4.1.0]hept-3-en-5-yl)-4-fluorophenyl)-5-(prop-2-yn-1-yloxy)pyrazine-2-carboxamide trifluoroacetate]	0.0035 µM	143 µM	82%	77%	0.008 µM			
NC1=N[C@](CF)(c2cc(NC(=O)c3cnc(OCC(F)(F)F)cn3)cc(Cl)c2F)[C@H]2C[C@H]2O1 [Example 90, N-(3-((1R,5S,6R)-3-amino-5-(fluoromethyl)-2-oxa-4-azabicyclo[4.1.0]hept-3-en-5-yl)-5-chloro-4-fluorophenyl)-5-(2,2,2-trifluoroethoxy)pyrazine-2-carboxamide]	0.0136 µM	913 µM	48%	31%	0.0213 µM			
COc1cnc(C(=O)Nc2ccc(F)c([C@@]3(C(F)F)N=C(N)O[C@@H]4C[C@@H]43)c2)c(Cl)c1 [Example 70, N-(3-((1R,5S,6R)-3-amino-5-(difluoromethyl)-2-oxa-4-azabicyclo[4.1.0]hept-3-en-5-yl)-4-fluorophenyl)-3-chloro-5-methoxypicolinamide]	0.0568 µM	379 µM	65%	51%	0.0386 µM			
NC1=N[C@](CF)(c2cc(NC(=O)c3ncc(Cl)cc3Cl)ccc2F)[C@H]2C[C@H]2O1 [Example 193]	0.0449 µM	875 µM	75%	67%	0.0108 µM			
NC1=N[C@@](c2cc(NC(=O)c3cnc(OCc4ncco4)cn3)ccc2F)(C(F)F)[C@H]2C[C@H]2O1 [Example 167, N-(3-((1R,5S,6R)-3-amino-5-(difluoromethyl)-2-oxa-4-azabicyclo[4.1.0]hept-3-en-5-yl)-4-fluorophenyl)-5-(oxazol-2-ylmethoxy)pyrazine-2-carboxamide]	0.0124 µM	767 µM	60%	41%	0.0103 µM			
COc1cnc(C(=O)Nc2ccc(F)c([C@@]3(C(F)F)N=C(N)O[C@@H]4C[C@@H]43)c2)c(F)c1 [Example 306, N-(3-((1R,5S,6R)-3-amino-5-(difluoromethyl)-2-oxa-4-azabicyclo[4.1.0]hept-3-en-5-yl)-4-fluorophenyl)-3-fluoro-5-methoxypicolinamide]	0.0419 µM	1040 µM	13%	−1%	0.0256 µM			
Cc1cc(NC(=O)c2ncc(Cl)cc2F)cc([C@@]2(C(F)F)N=C(N)O[C@@H]3C[C@@H]32)c1F [Example 302, N-(3-((1R,5S,6R)-3-amino-5-(difluoromethyl)-2-oxa-4-azabicyclo[4.1.0]hept-3-en-5-yl)-4-fluoro-5-methylphenyl)-5-chloro-3-fluoropicolinamide]	0.0315 µM	811 µM	37%	9%	0.0141 µM			
COc1ccc(C(=O)Nc2ccc(F)c([C@@]3(C(F)F)N=C(N)O[C@@H]4C[C@@H]43)c2)nc1 [Example 130, N-(3-((1R,5S,6R)-3-amino-5-(difluoromethyl)-2-oxa-4-azabicyclo[4.1.0]hept-3-en-5-yl)-4-fluorophenyl)-5-methoxypicolinamide]	0.0845 µM	988 µM	49%	23%	0.0586 µM			
